# Numbered stars: 1 amine (or outer) side, 2 acyl side, 3 side chain; on linkers, the order of the positions; unused ones are H or OH. Bridge positions count the residues as written; N and C are the ends. Square brackets hold non-standard residues; d marks the D form. Side chains are listed from the residue outwards. Peptide text beside a SMILES is read from it. * marks the point of attachment. C18 diacid = O=C(O)CCCCCCCCCCCCCCCCC(=O)*; γGlu = O=C(O)[C@H](CCC(=O)[*:2])N[*:1]; αMeF = C[C@](N)(Cc1ccccc1)C(=O)O; Dab = NCC[C@H](N)C(=O)O; Aib = CC(C)(N)C(=O)O
# Tests used:
# [1] = in vivo; settings: male, Sprague-Dawley, rat, 20 nmol/kg
# Description: PK studies were performed to determine the half-life (T1/2) of test peptides. T1/2 describes the time taken for the maximum plasma concentration (Cmax) of a test substance to halve its steady-state concentration when in circulation.
# Male SD rats were purchased from Si Bei Fu Laboratory Animal Technology Co. Ltd (China). The animals were 6-8 weeks old with body weights of 200-300 g on the dosing date. The animals were housed in a 12-hour light/12-hour dark cycle environment and were fasted overnight before dosing. The body weight of the animals were recorded before dosing, 24 h and 48 h post dosing . Animals had free access to food and drinks, and the food consumption was quantified every day.
# Test articles were administered at 20 nmol/kg. Blood samples were collected from each animal via Jugular vein.
# The blood samples were transferred into eppendorf low binding tube containing K2 EDTA. Above 0.150 mL blood were collected at each time point. Blood samples were centrifuged at 4,000 g for 5 minutes at 4° C. to obtain plasma. The plasma samples were stored frozen at −75±15° C. until analysis.
# Concentrations of the test articles in the plasma samples were analyzed using a LC-MS/MS method. Data acquisition was performed by LabSolution version 5.89 software (Shimadzu, Kyoto, Japan). Data statistics were performed using Excel 97-2003 software. The pharmacokinetic parameters of test articles were calculated using a non-compartmental approach with Phoenix™ VVinNonlin® 6.1.
# The following pharmacokinetic parameters were calculated, whenever possible from the plasma concentration versus time data: • IV administration: T1/2, C0, AUClast, AUCinf, MRTinf, Cl, Vss, Number of Points for Regression. • SC administration: Tmax, Cmax, AUClast, AUCinf, MRTinf, F, Number of Points for Regression.
# [2] = biological target: T1, human calcitonin receptor (hCTR) (Homo sapiens, UniProt P30988); assay: cAMP production in 1321N1 cells with stable recombinant expression of human calcitonin receptor (hCTR); format: cell-based; settings: cAMP, 1321N1 cells, assay buffer with 0.1% BSA; read-out: EC50 (pM) hCTR
# T1 construct: expressed in transfected cells
# T1 sequence (P30988 25-474): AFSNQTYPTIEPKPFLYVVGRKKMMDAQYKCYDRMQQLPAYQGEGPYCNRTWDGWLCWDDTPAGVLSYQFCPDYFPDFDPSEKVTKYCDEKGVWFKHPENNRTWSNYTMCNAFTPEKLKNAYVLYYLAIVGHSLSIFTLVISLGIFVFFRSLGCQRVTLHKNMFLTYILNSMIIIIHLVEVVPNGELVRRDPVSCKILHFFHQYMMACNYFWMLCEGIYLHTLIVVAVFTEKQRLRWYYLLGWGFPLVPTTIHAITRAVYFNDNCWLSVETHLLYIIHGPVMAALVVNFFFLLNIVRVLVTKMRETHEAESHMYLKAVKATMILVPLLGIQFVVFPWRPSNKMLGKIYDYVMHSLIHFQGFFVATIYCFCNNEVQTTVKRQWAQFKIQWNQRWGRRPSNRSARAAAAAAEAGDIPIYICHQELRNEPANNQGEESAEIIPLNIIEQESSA
# How it was run: (§1)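 Thawed cells in HBSS/0.1% BSA/25 mM HEPES pH 7.4 with 0.5 mM IBMX were incubated with peptides 30 min at room temperature; cAMP read by HTRF. EC50 from 4-parameter fit of % activation relative to maximal amylin or calcitonin effect.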
# [3] = biological target: T2, human amylin receptor (calcitonin receptor co-expressed with receptor activity modifying protein, RAMP3) (hAMYR3) (Homo sapiens, UniProt O60896+P30988); assay: cAMP production in 1321N1 cells with stable recombinant expression of human amylin receptor (hAMYR3); format: cell-based; settings: for Ratio (selectivity hAMYR vs hCTR, ratio of EC50 values at the two receptors): EC50 hCTR / EC50 hAMYR3; for EC50: cAMP, 1321N1 cells, assay buffer with 0.1% BSA, read-out: EC50 (pM) hAMYR3
# T2 construct: expressed in transfected cells
# T2 sequence (P30988 25-474): T1 sequence (P30988 25-474)
# T2 sequence (O60896 24-148 partner): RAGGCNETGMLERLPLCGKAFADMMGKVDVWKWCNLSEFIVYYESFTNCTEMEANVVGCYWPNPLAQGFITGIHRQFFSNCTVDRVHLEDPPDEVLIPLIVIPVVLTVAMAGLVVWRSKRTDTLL
# How it was run: as §1
half-life ([1]; iv),EC50 [2],"Ratio (selectivity hAMYR vs hCTR, ratio of EC50 values at the two receptors) [3]",EC50 [3],half-life ([1]; sc),Compound
14 h,1350 pM,5,246 pM,–,CC[C@H](C)[C@H](NC(=O)[C@@H]1CCCN1C(=O)CNC(=O)[C@H](Cc1ccccc1)NC(=O)[C@H](CC(N)=O)NC(=O)[C@H](CC(N)=O)NC(=O)[C@H](CO)NC(=O)[C@H](CO)NC(=O)[C@H](Cc1c[nH]cn1)NC(=O)[C@@H](NC(=O)[C@H](CC(C)C)NC(=O)[C@H](Cc1ccccc1)NC(=O)[C@H](CC(N)=O)NC(=O)[C@H](C)NC(=O)[C@H](CC(C)C)NC(=O)[C@H](CCCNC(=N)N)NC(=O)[C@H](CCC(N)=O)NC(=O)[C@@H](NC(=O)[C@H](C)NC(=O)[C@@H]1CSSC[C@H](NC(=O)[C@H](CCCCN)NC(=O)CC[C@H](NC(=O)CCCCCCCCCCCCCCCCC(=O)O)C(=O)O)C(=O)N[C@@H](CC(N)=O)C(=O)N[C@@H]([C@@H](C)O)C(=O)N[C@@H](C)C(=O)N[C@@H]([C@@H](C)O)C(=O)N1)[C@@H](C)O)C(C)C)C(=O)N[C@@H](CC(C)C)C(=O)N1CCC[C@H]1C(=O)N1CCC[C@H]1C(=O)N[C@H](C(=O)N[C@@H](CC(N)=O)C(=O)N[C@H](C(=O)NCC(=O)N[C@@H](CO)C(=O)N[C@@H](CC(N)=O)C(=O)N[C@H](C(=O)N[C@@H](Cc1ccc(O)cc1)C(N)=O)[C@@H](C)O)C(C)C)[C@@H](C)O [Peptide 3] ({C18 diacid-γGlu}-KCNTATCATQRLANFLVHSSNNFGPILPPTNVGSNTY-NH2; disulfide 2-7)
4.2 h,20200 pM,54,375 pM,6.2 h,"CC[C@H](C)[C@H](NC(=O)[C@H](C)NC(=O)[C@@H]1CCCN1C(=O)[C@H](Cc1ccccc1)NC(=O)[C@H](CC(N)=O)NC(=O)[C@H](CCN)NC(=O)[C@H](CO)NC(=O)[C@H](CO)NC(=O)[C@H](Cc1c[nH]cn1)NC(=O)[C@@H](NC(=O)[C@H](CC(C)C)NC(=O)[C@H](Cc1ccccc1)NC(=O)[C@H](CC(N)=O)NC(=O)[C@H](C)NC(=O)[C@H](CC(C)C)NC(=O)[C@H](CCCNC(=N)N)NC(=O)[C@H](CCC(N)=O)NC(=O)[C@@H](NC(=O)[C@H](C)NC(=O)[C@@H]1CSSC[C@H](NC(=O)[C@@H](N)CCCCNC(=O)CC[C@H](NC(=O)CC[C@H](NC(=O)CCCCCCCCCCCCCCCCC(=O)O)C(=O)O)C(=O)O)C(=O)N[C@@H](CC(N)=O)C(=O)N[C@@H]([C@@H](C)O)C(=O)N[C@@H](C)C(=O)N[C@@H]([C@@H](C)O)C(=O)N1)[C@@H](C)O)C(C)C)C(=O)N[C@@H](CC(C)C)C(=O)N[C@@H](CO)C(=O)N1CCC[C@H]1C(=O)N[C@H](C(=O)N[C@@H](CC(N)=O)C(=O)N[C@H](C(=O)NCC(=O)N[C@@H](CO)C(=O)N[C@@H](CC(N)=O)C(=O)N[C@H](C(=O)N[C@@H](Cc1ccc(O)cc1)C(N)=O)[C@@H](C)O)C(C)C)[C@@H](C)O [Peptide 8, K(γE-γE-C18diacid)[CNTATC]ATQRLANFLVHSS(Dab)NFPAILSPTNVGSNTY-amide] (H-K([γGlu-γGlu-C18 diacid])CNTATCATQRLANFLVHSS[Dab]NFPAILSPTNVGSNTY-NH2; disulfide 2-7)"
5.9 h,13500 pM,42,320 pM,7.8 h,"CC[C@H](C)[C@H](NC(=O)[C@H](C)NC(=O)[C@@H]1CCCN1C(=O)[C@H](Cc1ccccc1)NC(=O)[C@H](CC(N)=O)NC(=O)C(C)(C)NC(=O)[C@H](CO)NC(=O)[C@H](CO)NC(=O)[C@H](Cc1c[nH]cn1)NC(=O)[C@@H](NC(=O)[C@H](CC(C)C)NC(=O)[C@H](Cc1ccccc1)NC(=O)[C@H](CC(N)=O)NC(=O)[C@H](C)NC(=O)[C@H](CC(C)C)NC(=O)[C@H](CCCNC(=N)N)NC(=O)[C@H](CCC(N)=O)NC(=O)[C@@H](NC(=O)[C@H](C)NC(=O)[C@@H]1CSSC[C@H](NC(=O)[C@@H](N)CCCCNC(=O)CC[C@H](NC(=O)CC[C@H](NC(=O)CCCCCCCCCCCCCCCCC(=O)O)C(=O)O)C(=O)O)C(=O)N[C@@H](CC(N)=O)C(=O)N[C@@H]([C@@H](C)O)C(=O)N[C@@H](C)C(=O)N[C@@H]([C@@H](C)O)C(=O)N1)[C@@H](C)O)C(C)C)C(=O)N[C@@H](CC(C)C)C(=O)N[C@@H](CO)C(=O)N1CCC[C@H]1C(=O)N[C@H](C(=O)N[C@@H](CC(N)=O)C(=O)N[C@H](C(=O)NCC(=O)N[C@@H](CO)C(=O)N[C@@H](CC(N)=O)C(=O)N[C@H](C(=O)N[C@@H](Cc1ccc(O)cc1)C(N)=O)[C@@H](C)O)C(C)C)[C@@H](C)O [Peptide 9, K(γE-γE-C18diacid)[CNTATC]ATQRLANFLVHSS(Aib)NFPAILSPTNVGSNTY-amide] (H-K([γGlu-γGlu-C18 diacid])CNTATCATQRLANFLVHSS[Aib]NFPAILSPTNVGSNTY-NH2; disulfide 2-7)"
9.4 h,1860 pM,15,127 pM,10.5 h,"CC[C@H](C)[C@H](NC(=O)[C@@H]1CCCN1C(=O)CNC(=O)[C@](C)(Cc1ccccc1)NC(=O)[C@H](CC(N)=O)NC(=O)[C@H](CC(N)=O)NC(=O)[C@H](CO)NC(=O)[C@H](CO)NC(=O)[C@H](Cc1c[nH]cn1)NC(=O)[C@@H](NC(=O)[C@H](CC(C)C)NC(=O)[C@H](Cc1ccccc1)NC(=O)[C@H](CC(N)=O)NC(=O)[C@H](C)NC(=O)[C@H](CC(C)C)NC(=O)[C@H](CCCNC(=N)N)NC(=O)[C@H](CCC(N)=O)NC(=O)[C@@H](NC(=O)[C@H](C)NC(=O)[C@@H]1CSSC[C@H](NC(=O)[C@@H](N)CCCCNC(=O)CC[C@H](NC(=O)CC[C@H](NC(=O)CCCCCCCCCCCCCCCCC(=O)O)C(=O)O)C(=O)O)C(=O)N[C@@H](CC(N)=O)C(=O)N[C@@H]([C@@H](C)O)C(=O)N[C@@H](C)C(=O)N[C@@H]([C@@H](C)O)C(=O)N1)[C@@H](C)O)C(C)C)C(=O)N[C@@H](CC(C)C)C(=O)N1CCC[C@H]1C(=O)N1CCC[C@H]1C(=O)N[C@H](C(=O)N[C@@H](CCCNC(=N)N)C(=O)N[C@H](C(=O)NCC(=O)N[C@@H](CO)C(=O)N[C@@H](CC(N)=O)C(=O)N[C@H](C(=O)N[C@@H](Cc1ccc(O)cc1)C(N)=O)[C@@H](C)O)C(C)C)[C@@H](C)O [Peptide 24, K(γE-γE-C18diacid)[CNTATC]ATQRLANFLVHSSNN(αMePhe)GPILPPTRVGSNTY-amide] (H-K([γGlu-γGlu-C18 diacid])CNTATCATQRLANFLVHSSNN[αMeF]GPILPPTRVGSNTY-NH2; disulfide 2-7; N-terminus assumed)"
7.4 h,3330 pM,15,228 pM,8.1 h,"CC[C@H](C)[C@H](NC(=O)[C@@H]1CCCN1C(=O)CNC(=O)[C@H](Cc1ccccc1)NC(=O)[C@H](CC(N)=O)NC(=O)C(C)(C)NC(=O)[C@H](CO)NC(=O)[C@H](CO)NC(=O)[C@H](Cc1c[nH]cn1)NC(=O)[C@@H](NC(=O)[C@H](CC(C)C)NC(=O)[C@H](Cc1ccccc1)NC(=O)[C@H](CC(N)=O)NC(=O)[C@H](C)NC(=O)[C@H](CC(C)C)NC(=O)[C@H](CCCNC(=N)N)NC(=O)[C@H](CCC(N)=O)NC(=O)[C@@H](NC(=O)[C@H](C)NC(=O)[C@@H]1CSSC[C@H](NC(=O)[C@H](CCCCN)NC(=O)[C@@H](N)CCCCNC(=O)CC[C@H](NC(=O)CCCCCCCCCCCCCCCCC(=O)O)C(=O)O)C(=O)N[C@@H](CC(N)=O)C(=O)N[C@@H]([C@@H](C)O)C(=O)N[C@@H](C)C(=O)N[C@@H]([C@@H](C)O)C(=O)N1)[C@@H](C)O)C(C)C)C(=O)N[C@@H](CC(C)C)C(=O)N1CCC[C@H]1C(=O)N1CCC[C@H]1C(=O)N[C@H](C(=O)N[C@@H](Cc1c[nH]cn1)C(=O)N[C@H](C(=O)NCC(=O)N[C@@H](CO)C(=O)N[C@@H](CC(N)=O)C(=O)N[C@H](C(=O)N[C@@H](Cc1ccc(O)cc1)C(N)=O)[C@@H](C)O)C(C)C)[C@@H](C)O [Peptide 40, K(γE-C18diacid)K[CNTATC]ATQRLANFLVHSS(Aib)NFGPILPPTHVGSNTY-amide] (H-K([γGlu-C18 diacid])KCNTATCATQRLANFLVHSS[Aib]NFGPILPPTHVGSNTY-NH2; disulfide 3-8)"

# From patent US20240067693A1, “POLYPEPTIDES AND USES THEREOF” (MEDIMMUNE LIMITED, priority 2020, published 2024)
